Experimental data reported in patent US20120058989A1, “ANTIBACTERIAL FLUOROQUINOLONE ANALOGS” (Achaogen, Inc., priority 2008, published 2012).
Values after ≈ are worked out from the molar mass of the structure shown. Read-outs that look alike come from different tables or passages of the source.

How the values were obtained:
Assay in all cases: MIC, CLSI broth microdilution
Format in all cases: cell-based
[1] = system: S. pneumoniae ASPN1027 (Fluoroquinolone-resistant); settings: for MIC: Streptococcus pneumoniae
In short: (§1)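 Test compounds were diluted two-fold at 2× strength in Mueller Hinton Broth, then combined 1:1 with saline-suspended bacteria from an overnight agar colony to reach 5×10^5 CFU/mL. Incubation followed at 35° C. for 20 hours in ambient air, per CLSI reference methods.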

[2] = system: E. coli AECO066 (Fluoroquinolone-resistant); settings: for MIC: Escherichia coli
In short: as §1

[3] = system: S. aureus ASAU002 (Fluoroquinolone-susceptible, ATCC33591 (MRSA)); settings: Table 3; for MIC: Staphylococcus aureus
In short: as §1

[4] = system: A. baumannii AABA1009 (Fluoroquinolone-resistant); settings: for MIC: Acinetobacter baumannii, Table 2, read-out: MIC AABA 1009
In short: as §1

[5] = system: P. aeruginosa APAE054 (Fluoroquinolone-resistant); settings: for MIC: Pseudomonas aeruginosa
In short: as §1

[6] = system: A. baumannii AABA1065 (Fluoroquinolone-susceptible); settings: for MIC: Acinetobacter baumannii
In short: as §1

[7] = system: E. coli AECO002 (Fluoroquinolone susceptible); settings: Table 3; for MIC: Escherichia coli
In short: as §1

[8] = system: P. aeruginosa APAE001 (Fluoroquinolone-susceptible, ATCC27853); settings: for MIC: Pseudomonas aeruginosa
In short: as §1

[9] = system: A. baumannii AABA1020 (Fluoroquinolone-resistant); settings: Table 3; for MIC: Acinetobacter baumannii
In short: as §1

[10] = system: S. aureus ASAU001 (Fluoroquinolone-susceptible, ATCC29213); settings: for MIC: Staphylococcus aureus
In short: as §1

[11] = system: S. aureus ASAU1031 (Fluoroquinolone-resistant); settings: for MIC: Staphylococcus aureus
In short: as §1

[12] = system: S. pneumoniae ASPN001 (Fluoroquinolone-susceptible, ATCC49619); settings: for MIC: Streptococcus pneumoniae
In short: as §1

[13] = system: S. pneumoniae ASPN002 (Fluoroquinolone-susceptible, ATCC10813); settings: Table 3; for MIC: Streptococcus pneumoniae
In short: as §1

[14] = system: E. coli AECO086 (Fluoroquinolone-resistant); settings: Table 3; for MIC: Escherichia coli
In short: as §1

[15] = system: S. aureus ASAU1033 (Fluoroquinolone-resistant); settings: Table 3; for MIC: Staphylococcus aureus
In short: as §1

[16] = system: S. pneumoniae ASPN1018 (Fluoroquinolone-resistant); settings: Table 3; for MIC: Streptococcus pneumoniae
In short: as §1

[17] = system: E. coli AECO001 (Fluoroquinolone susceptible, ATCC25922); settings: for MIC: Escherichia coli
In short: as §1

[18] = system: P. aeruginosa APAE002 (Fluoroquinolone susceptible); settings: Table 3; for MIC: Pseudomonas aeruginosa
In short: as §1

[19] = Table 2, read-out: MIC ASPN 1027
[20] = Table 2, read-out: MIC AECO 066
[21] = Table 2, read-out: MIC APAE 054
[22] = Table 2, read-out: MIC AABA 1065
[23] = Table 2, read-out: MIC APAE 001
[24] = Table 2, read-out: MIC ASAU 001
[25] = Table 2, read-out: MIC ASAU 1031
[26] = Table 2, read-out: MIC ASPN 001
[27] = Table 2, 35° C., 20 hours, read-out: MIC AECO 001

Which results are given for N[C@H]1CCN2c3c(F)cc4c(=O)c(C(=O)O)cn(C5CC5)c4c3CCC[C@H]12.O=C(O)C(F)(F)F [17/10, (7aR,8S)-8-Amino-4-cyclopropyl-12-fluoro-1-oxo-4,5,6,7,7a,8,9,10-octahydro-1H-pyrrolo[1′,2′:1,7]azepino-[2,3-h]quinoline-2-carboxylic acid trifluoroacetate]?
MIC ASPN 1027 ([1]; Table 2): B (MIC's of greater than 1.0 μg/mL to 8.0 μg/mL = B); MIC ASPN 1027 ([1]; Table 3): B (MIC's of 1.0 μg/mL to 2.0 μg/mL = B); MIC AECO 066 ([2]; Table 2): C (MIC's of greater than 8.0 μg/mL = C); MIC AECO 066 ([2]; Table 3): D (MIC's of greater than 8.0 μg/mL = D); MIC ASAU002 [3]: A (MIC's of less than 1.0 = A); MIC AABA 1009 ([4]; Table 2): C (MIC's of greater than 8.0 μg/mL = C); MIC APAE 054 ([5]; Table 2): C (MIC's of greater than 8.0 μg/mL = C); MIC APAE 054 ([5]; Table 3): D (MIC's of greater than 8.0 μg/mL = D); MIC AABA 1065 ([6]; Table 2): A (MIC's of 1.0 μg/mL or less = A); MIC AABA 1065 ([6]; Table 3): A (MIC's of less than 1.0 = A); MIC AECO002 [7]: A (MIC's of less than 1.0 = A); MIC APAE 001 ([8]; Table 2): B (MIC's of greater than 1.0 μg/mL to 8.0 μg/mL = B); MIC APAE 001 ([8]; Table 3): B (MIC's of 1.0 μg/mL to 2.0 μg/mL = B); MIC AABA1020 [9]: D (MIC's of greater than 8.0 μg/mL = D); MIC ASAU 001 ([10]; Table 2): A (MIC's of 1.0 μg/mL or less = A); MIC ASAU 001 ([10]; Table 3): A (MIC's of less than 1.0 = A); MIC ASAU 1031 ([11]; Table 2): B (MIC's of greater than 1.0 μg/mL to 8.0 μg/mL = B); MIC ASAU 1031 ([11]; Table 3): B (MIC's of 1.0 μg/mL to 2.0 μg/mL = B); MIC ASPN 001 ([12]; Table 2): A (MIC's of 1.0 μg/mL or less = A); MIC ASPN 001 ([12]; Table 3): A (MIC's of less than 1.0 = A); MIC ASPN002 [13]: A (MIC's of less than 1.0 = A); MIC AECO086 [14]: D (MIC's of greater than 8.0 μg/mL = D); MIC ASAU1033 [15]: D (MIC's of greater than 8.0 μg/mL = D); MIC ASPN1018 [16]: C (MIC's of 2.0 μg/mL to 8.0 μg/mL = C); MIC AECO 001 ([17]; Table 2, 35° C., 20 hours): A (MIC's of 1.0 μg/mL or less = A); MIC AECO 001 ([17]; Table 3): A (MIC's of less than 1.0 = A); MIC APAE002 [18]: A (MIC's of less than 1.0 = A)

C[C@H]1COc2c(N3CCN(C)CC3)c(F)cc3c(=O)c(C(=O)O)cn1c23 [Levofloxacin, reference compound] was tested. Which MIC [1, 19] did it give?
The MIC was over 8 µg/mL.

And the MIC ([1]; Table 3)?
The MIC was over 8 µg/mL.

What about the MIC [2, 20] of the same compound?
The MIC was over 8 µg/mL.

What about the MIC ([2]; Table 3) of the same compound?
The MIC was over 8 µg/mL.

What about the MIC [3] of the same compound?
Its MIC is under 1 µg/mL.

What about the MIC [4] of the same compound?
The MIC was over 8 µg/mL.

What about the MIC [5, 21] of the same compound?
The MIC was over 8 µg/mL.

And the MIC ([5]; Table 3)?
Its MIC is over 8 µg/mL.

What about the MIC [6, 22] of the same compound?
Its MIC is at most 1 µg/mL.

What about the MIC ([6]; Table 3) of the same compound?
Its MIC is under 1 µg/mL.

What about the MIC [7] of the same compound?
The MIC was under 1 µg/mL.

And the MIC [8, 23]?
Its MIC is 1 to 8 µg/mL (≈ 2.77 to 22.1 µM).

What about the MIC ([8]; Table 3) of the same compound?
The MIC was 1 to 2 µg/mL (≈ 2.77 to 5.53 µM).

What about the MIC [9] of the same compound?
The MIC was over 8 µg/mL.

And the MIC [10, 24]?
The MIC was at most 1 µg/mL.

What about the MIC ([10]; Table 3) of the same compound?
Its MIC is under 1 µg/mL.

What about the MIC [11, 25] of the same compound?
Its MIC is over 8 µg/mL.

What about the MIC ([11]; Table 3) of the same compound?
Its MIC is over 8 µg/mL.

What about the MIC [12, 26] of the same compound?
Its MIC is 1 to 8 µg/mL (≈ 2.77 to 22.1 µM).

What about the MIC ([12]; Table 3) of the same compound?
Its MIC is 1 to 2 µg/mL (≈ 2.77 to 5.53 µM).

And the MIC [13]?
Its MIC is 1 to 2 µg/mL (≈ 2.77 to 5.53 µM).

What about the MIC [14] of the same compound?
The MIC was over 8 µg/mL.

What about the MIC [15] of the same compound?
The MIC was over 8 µg/mL.

And the MIC [16]?
Its MIC is over 8 µg/mL.

And the MIC [17, 27]?
The MIC was at most 1 µg/mL.

And the MIC ([17]; Table 3)?
The MIC was under 1 µg/mL.

What about the MIC [18] of the same compound?
Its MIC is under 1 µg/mL.

COc1c(N2C[C@@H]3CCCN[C@@H]3C2)c(F)cc2c(=O)c(C(=O)O)cn(C3CC3)c12 [Moxifloxacin, reference compound] was tested. Which MIC [1, 19] did it give?
Its MIC is 1 to 8 µg/mL (≈ 2.49 to 19.9 µM).

What about the MIC ([1]; Table 3) of the same compound?
The MIC was 2 to 8 µg/mL (≈ 4.98 to 19.9 µM).

What about the MIC [2, 20] of the same compound?
Its MIC is over 8 µg/mL.

And the MIC ([2]; Table 3)?
Its MIC is over 8 µg/mL.

What about the MIC [3] of the same compound?
Its MIC is under 1 µg/mL.

And the MIC [4]?
Its MIC is over 8 µg/mL.

What about the MIC [5, 21] of the same compound?
Its MIC is over 8 µg/mL.

What about the MIC ([5]; Table 3) of the same compound?
The MIC was over 8 µg/mL.

And the MIC [6, 22]?
The MIC was at most 1 µg/mL.

And the MIC ([6]; Table 3)?
The MIC was under 1 µg/mL.

What about the MIC [7] of the same compound?
The MIC was under 1 µg/mL.

And the MIC [8, 23]?
The MIC was 1 to 8 µg/mL (≈ 2.49 to 19.9 µM).

What about the MIC ([8]; Table 3) of the same compound?
The MIC was 1 to 2 µg/mL (≈ 2.49 to 4.98 µM).

And the MIC [9]?
Its MIC is over 8 µg/mL.

And the MIC [10, 24]?
The MIC was at most 1 µg/mL.

And the MIC ([10]; Table 3)?
Its MIC is under 1 µg/mL.

What about the MIC [11, 25] of the same compound?
Its MIC is 1 to 8 µg/mL (≈ 2.49 to 19.9 µM).

What about the MIC ([11]; Table 3) of the same compound?
The MIC was 2 to 8 µg/mL (≈ 4.98 to 19.9 µM).

And the MIC [12, 26]?
The MIC was at most 1 µg/mL.

And the MIC ([12]; Table 3)?
Its MIC is under 1 µg/mL.

What about the MIC [13] of the same compound?
The MIC was under 1 µg/mL.

What about the MIC [14] of the same compound?
The MIC was over 8 µg/mL.

What about the MIC [15] of the same compound?
The MIC was over 8 µg/mL.

And the MIC [16]?
The MIC was 2 to 8 µg/mL (≈ 4.98 to 19.9 µM).

And the MIC [17, 27]?
The MIC was at most 1 µg/mL.

What about the MIC ([17]; Table 3) of the same compound?
The MIC was under 1 µg/mL.

And the MIC [18]?
The MIC was 1 to 2 µg/mL (≈ 2.49 to 4.98 µM).
